“And” between values parts separate entries of the source, which are not always exact repeats. Equal values may be shown once. Read-outs that look alike come from different tables or passages of the source.
Legend:
Assay type in all cases: physicochemical
[1] = Stability testing, solid state bulk (UPLC, color, XRPD, TGA); conditions: for Degradation Products (DP), UPLC / TGA (%) Weight loss at 175° C. / XRPD: solid state
Protocol: (§1) X-ray powder diffraction (XRPD) analysis of all polymorph forms was performed using a Bruker D8 Discover x-ray diffractometer with XYZ stage. Measurements were taken at about 40 kV and 1 mA under the following conditions:
(§2) Crystalline Monohydrate Form HA was analysed by thermogravimetric analysis (TGA) using a Discovery Thermogravimetric Analysis Calorimeter from TA instruments under the following conditions (see Table 6).
(§3) No notable change in chemical purity, nor change in XRPD, nor change in TGA, was observed.

[2] = Solubility at 25° C., 24 hours slurry; conditions: for Solubility / solubility at 24 h: approx. at 25° C., target concentration 10 mg/mL; for Final pH / XRPD of solid after equilibration: 25° C.; for solubility at 24 h: 25 °C, thermodynamic from solid, read-out: Solubility
Protocol: A sample was weighed in a glass vial and solvent added to make a slurry followed by stirring or shaking at 25° C. for 24 hours. The amount of sample and solvents depends on the target concentration, e.g. if the target concentration is 10 mg/mL, the weight of the sample should be 10 mg and the amount of solvent volume should be 1 mL. The solid and liquid are separated by centrifugation at 13000 rpm for 2 minutes with 0.2 μm membrane. The filtrate is then used for the solubility test after appropriate dilution. The diluent is from the UPLC method. The solids obtained after equilibration were analyzed by XRPD after being dried at 40° C. under vacuum for 2 hours. DSC/TGA analysis was conducted for selected samples.

[3] = Particle size distribution by Fraunhofer light diffraction
Protocol: (§4) Pilot manufacture batches producing Modification HA and Form A on kilogram scale were compared for their respective bulk powder properties. The particle size distribution (PSD) was determined according to the corresponding method for release. Other measurements were performed using technical methods known in the art or as described herein.
A few drops of the dispersing aid were added to an appropriate amount of test substance. The mixture was mixed intensively, e.g. on a vortex mixer, in order to wet the substance thoroughly and to form a smooth and homogeneous paste. The resultant paste was diluted with the dispersion liquid to a final volume of 3-6 ml and the dispersion mixed again. The cumulative volume distribution was determined using a laser light diffraction instrument as stated above. The parameters could be adjusted accordingly so that the test dispersion is representative, homogeneous and well dispersed.
Particle sizes were determined at the undersize values of 10%, 50% and 90% (×10, ×50, ×90), and additional values in question, from the cumulative volume distribution.

[4] = Bulk density and flowability with ring shear tester
Protocol: as §4

[5] = Behaviour under compression, grinding and granulation with water
[6] = Hygroscopicity, storage and solubility conclusions
Description: The term “non-hygroscopic” as used herein refers to a compound showing a water uptake of at most 2 w-% in the sorption cycle when measured with GMS (or DVS) at a relative humidity in the range of from 0 to 95% RH and a temperature of (25.0±0.1) ° C., based on the weight of the compound. Non-hygroscopic is preferably up to 0.2%.

[7] = Stability testing, solid state bulk (UPLC, color, XRPD, TGA); design: key: A: No change of color; conditions: solid state
Protocol: as §1, §2, §3

[8] = 1 week/80° C., glass vials with screw caps
[9] = 1 week/80° C./75% RH, open bottles
[10] = 2 weeks/50° C., glass vials with screw caps
[11] = 2 weeks/50° C./75% RH, open bottles
[12] = 2 weeks/80° C., glass vials with screw caps
[13] = 2 weeks/80° C./75% RH, open bottles
[14] = 3 months/40° C./75% RH, open bottles
[15] = 4 weeks/50° C., glass vials with screw caps
[16] = 4 weeks/50° C./75% RH, open bottles
[17] = Xenon light (approx. 1200 kLuxh)
[18] = pilot manufacture batch, kilogram scale

Stability upon light exposure ([1]; 1200 kLuxh for 12 h): stable upon light exposure
Degradation Products (DP), UPLC [1, 8]: 0.27%
TGA (%) Weight loss at 175° C. [1, 8]: 3.60% and 3.56%
XRPD [1, 8]: No change
Degradation Products (DP), UPLC [1, 9]: 0.30% and 0.26%
TGA (%) Weight loss at 175° C. [1, 9]: 3.76% and 3.86%
XRPD [1, 9]: No change
Degradation Products (DP), UPLC [1, 10]: 0.29% and 0.33%
TGA (%) Weight loss at 175° C. [1, 10]: 3.76% and 3.89%
XRPD [1, 10]: No change
Degradation Products (DP), UPLC [1, 11]: 0.27% and 0.25%
TGA (%) Weight loss at 175° C. [1, 11]: 3.66% and 3.65%
XRPD [1, 11]: No change
Degradation Products (DP), UPLC [1, 12]: 0.29%
TGA (%) Weight loss at 175° C. [1, 12]: 3.67% and 3.76%
XRPD [1, 12]: No change
Degradation Products (DP), UPLC [1, 13]: 0.26% and 0.28%
TGA (%) Weight loss at 175° C. [1, 13]: 3.60% and 3.66%
XRPD [1, 13]: No change
Degradation Products (DP), UPLC [1, 14]: 0.53% and 0.30%
TGA (%) Weight loss at 175° C. [1, 14]: 3.55% and 3.60%
XRPD [1, 14]: No change
Degradation Products (DP), UPLC [1, 15]: 0.28% and 0.27%
TGA (%) Weight loss at 175° C. [1, 15]: 3.75% and 3.63%
XRPD [1, 15]: No change
Degradation Products (DP), UPLC [1, 16]: 0.30% and 0.27%
TGA (%) Weight loss at 175° C. [1, 16]: 3.78% and 3.69%
XRPD [1, 16]: No change
Degradation Products (DP), UPLC [1, 17]: 0.36% and 0.30%
TGA (%) Weight loss at 175° C. [1, 17]: 3.76% and 3.90%
XRPD [1, 17]: No change
Stability in bulk ([1]; up to 80° C. over an extended period of time, no notable change in chemical purity, XRPD, TGA): highly stable in bulk
Solubility ([2]; FaSSIF (pH 6.5), LOQ = 0.002517 mg/mL): LOQ
Final pH ([2]; FaSSIF, pH 6.5): 6.44
XRPD of solid after equilibration ([2]; FaSSIF, pH 6.5): No change
solubility at 24 h ([2]; FeSSIF, pH 5.8, fessif, FeSSIF (pH 5.8), LOQ = 0.002517 mg/mL): 0.0032 mg/mL
Final pH ([2]; FeSSIF, pH 5.8): 5.69
XRPD of solid after equilibration ([2]; FeSSIF, pH 5.8): No change
Final pH ([2]; SGF (pH 2)): 2.07
XRPD of solid after equilibration ([2]; SGF (pH 2)): No change
solubility at 24 h ([2]; SGF, pH 2, simulated gastric fluid, SGF (pH 2), LOQ = 0.002517 mg/mL): 0.0022 mg/mL
Final pH ([2]; Water): 7.22
XRPD of solid after equilibration ([2]; Water): No change
Solubility ([2]; Water, LOQ = 0.002517 mg/mL): LOQ
solubility at 24 h ([2]; acetonitrile, organic solvent or mixture, Acetonitrile): > 10 mg/mL
solubility at 24 h ([2]; dichloromethane, organic solvent or mixture, Dichloromethane): > 10 mg/mL
solubility at 24 h ([2]; ethanol abs., organic solvent or mixture, Ethanol abs.): > 10 mg/mL
solubility at 24 h ([2]; ethyl acetate, organic solvent or mixture, Ethyl acetate): > 10 mg/mL
solubility at 24 h ([2]; methanol, organic solvent or mixture, Methanol): > 10 mg/mL
solubility at 24 h ([2]; octanol, organic solvent or mixture, Octanol): > 10 mg/mL
Final pH ([2]; pH 1 (0.1N HCl)): 1.06
XRPD of solid after equilibration ([2]; pH 1 (0.1N HCl)): No change
Solubility ([2]; pH 1 (0.1N HCl), LOQ = 0.002517 mg/mL): LOQ
Final pH ([2]; pH 2 (0.01N HCl)): 2.12
XRPD of solid after equilibration ([2]; pH 2 (0.01N HCl)): No change
Solubility ([2]; pH 2 (0.01N HCl), LOQ = 0.002517 mg/mL): LOQ
Final pH ([2]; pH 4.7 acetate buffer): 4.73
XRPD of solid after equilibration ([2]; pH 4.7 acetate buffer): No change
Solubility ([2]; pH 4.7 acetate buffer, LOQ = 0.002517 mg/mL): LOQ
Final pH ([2]; pH 6.8 phosphate buffer): 6.74
XRPD of solid after equilibration ([2]; pH 6.8 phosphate buffer): No change
Solubility ([2]; pH 6.8 phosphate buffer, LOQ = 0.002517 mg/mL): LOQ
Final pH ([2]; pH 9.0 borate buffer): 8.88
XRPD of solid after equilibration ([2]; pH 9.0 borate buffer): No change
Solubility ([2]; pH 9.0 borate buffer, LOQ = 0.002517 mg/mL): LOQ
Factor of diameter X10, Monohydrate HA vs. Modification A ([3]; 131 μm vs. 2 μm): > 10
Diameter X of PSD measured during release, X50 [3, 18]: X50: 277 μm
Diameter X of PSD measured during release, X90 [3, 18]: X90: 414 μm
Factor of bulk density, Monohydrate HA versus Modification A ([4]; 696 kg/m^3 versus 71 kg/m^3): ~10
Bulk flowability with ring shear tester, rating in words ([4]; under 1250 Pa normal stress): “free flowing”
Technical measurement of bulk flowability with ring shear tester ([4]; under 1250 Pa normal stress): 13.7
Technical measurement of bulk density with ring shear tester ([4]; under no consolidation stress): 696 kg/m^3
Solubility, overall rating [6]: adequate solubility
Stability when stored in bulk quantities [6]: stable when stored in bulk quantities
Hygroscopicity ([6]; non-hygroscopic defined as water uptake at most 2 w-%, 0 to 95% RH, 25° C. (GMS/DVS)): non-hygroscopic
Color (CL) [7, 8]: A
Color (CL) [7, 9]: A
Color (CL) [7, 10]: A
Color (CL) [7, 11]: A
Color (CL) [7, 12]: A
Color (CL) [7, 13]: A
Color (CL) [7, 14]: A
Color (CL) [7, 15]: A
Color (CL) [7, 16]: A
Color (CL) [7, 17]: A
Compound: Cc1ccc(NC(=O)c2ccnc(C(F)(F)F)c2)cc1-c1cc(OCCO)nc(N2CCOCC2)c1 [Monohydrate HA, N-(3-(2-(2-hydroxyethoxy)-6-morpholinopyridin-4-yl)-4-methylphenyl)-2-(trifluoromethyl)isonicotinamide]
Stability upon compression, grinding and wet granulation with water [5]: stable upon compression, grinding and wet granulation with water

From US12187703B2, “Crystalline forms of N-(3-(2-(2-hydroxyethoxy)-6-morpholinopyridin-4-yl)-4-methvlphenyl)-2 (trifluoromethyl)isonicotinamide as Raf inhibitors for the treatment of cancer” (NOVARTIS AG, priority 2019, dated 2025)
